Data taken from US11926626B2, “Heterocyclic GLP-1 agonists” (Gasherbrum Bio, Inc., priority 2020, dated 2024).

The compounds below were run against GLP-1 Receptor (Homo sapiens, UniProt P43220) (assay: GLP-1R agonist cAMP stimulation assay (HEK293/GLP1R/CRE-Luc cells, HTRF cAMP)). Settings: not given.
Assay type: cell-based
Description: Activation of GLP-1 receptor is known to stimulate cyclic AMP (cAMP) production in cells which indicates primary coupling to the Gαs subunit of the G protein heterotrimeric complex.
To optimize functional activity directed toward Gαs coupling, a HEK293/CRE-Luc cell line developed by HDB stably expressing the GLP-1 Receptor was used. […] 1×10^5 cells/mL HEK293/GLP1R/CRE-LUC(HD Biosciences) cell suspensions prepared with assay buffer[DPBS containing 0.5 mM IBMX (Sigma, Cat #I5879) and 0.1% BSA (GENVIEW, Cat #FA016-100g)], 10 uL cell suspensions were added to each well of previous generated assay plate which already contains 50 nl compound at 200×concentration using ThermoFisher Multidrop Combi (1000 cells/well). Seal the plate and incubate at 37° C. with 5% CO2 for 30 min.
After incubation the cAMP assay signal was generated using cAMP dynamic 2 Kit (Cisbio). 5 μL cAMP-d2 working solution was added to each well, followed with 5 μL Anti-cAMP antibody-cryptate working solution added to each well using ThermoFisher Multidrop Combi. Incubate at room temperature for 1 hour protected from light.

GLP-1 Receptor, sequence (P43220 24-463): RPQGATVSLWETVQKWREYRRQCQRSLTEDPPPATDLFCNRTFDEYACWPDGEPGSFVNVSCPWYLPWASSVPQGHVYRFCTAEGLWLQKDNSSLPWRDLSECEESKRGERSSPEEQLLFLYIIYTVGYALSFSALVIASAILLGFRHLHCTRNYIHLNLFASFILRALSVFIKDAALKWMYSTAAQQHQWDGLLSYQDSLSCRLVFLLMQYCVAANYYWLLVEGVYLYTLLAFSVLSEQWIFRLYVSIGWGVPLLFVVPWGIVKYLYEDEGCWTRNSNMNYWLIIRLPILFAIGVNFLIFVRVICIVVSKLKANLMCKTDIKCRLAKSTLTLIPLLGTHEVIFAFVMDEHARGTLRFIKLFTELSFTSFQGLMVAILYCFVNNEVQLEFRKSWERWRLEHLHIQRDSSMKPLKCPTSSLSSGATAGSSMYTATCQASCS

Row | SMILES | GLP1R cAMP Stimulation DR: pEC50
1 | CC(c1cccc(OC2CCN(Cc3nc4ccc(C(=O)O)nc4n3C[C@@H]3CCO3)CC2)n1)c1ccc(Cl)cc1F (stereo partly drawn) [Compound 128a, 2-{[4-({6-[1-(4-chloro-2-fluorophenyl)ethyl]pyridin-2-yl}oxy)piperidin-1-yl]methyl}-3-{[(2S)-oxetan-2-yl]methyl}-3H-imidazo[4,5-b]pyridine-5-carboxylic acid] | 8.9

Same assay, conditions: 30 min, 37° C.

Row | SMILES | GLP1R cAMP Stimulation DR: pEC50
2 | O=C(O)c1ccc2nc(CN3CCC(Oc4cccc(Cc5ccc(Cl)s5)n4)CC3)n(C[C@@H]3CCO3)c2n1 [Compound 147a, 2-{[4-({6-[(5-chlorothiophen-2-yl)methyl]pyridin-2-yl}oxy)piperidin-1-yl]methyl}-3-{[(2S)-oxetan-2-yl]methyl}-3H-imidazo[4,5-b]pyridine-5-carboxylic acid] | 9.7

Same assay, conditions: 30 min, 37° C.; read-out: GLP1R cAMP Stimulation DR: EC50

Row | SMILES | EC50 [nM]
3 | O=C(O)c1ccc2nc(CN3CCC(Oc4cccc(Cc5ccc(Cl)s5)n4)CC3)n(C[C@@H]3CCO3)c2n1 [Compound 147a, 2-{[4-({6-[(5-chlorothiophen-2-yl)methyl]pyridin-2-yl}oxy)piperidin-1-yl]methyl}-3-{[(2S)-oxetan-2-yl]methyl}-3H-imidazo[4,5-b]pyridine-5-carboxylic acid] | 0.2

Same assay, conditions: HEK293/CRE-Luc cells stably expressing GLP-1 Receptor; 30 min, 37° C.

Row | SMILES | GLP1R cAMP Stimulation DR: pEC50
4 | O=C(O)c1ccc2nc(CN3CCC(Oc4ccnc(Cc5ccc(Cl)cc5)n4)CC3)n(C[C@@H]3CCO3)c2n1 [Compound 152a, 2-{[4-({2-[(4-chlorophenyl)methyl]pyrimidin-4-yl}oxy)piperidin-1-yl]methyl}-3-{[(2S)-oxetan-2-yl]methyl}-3H-imidazo[4,5-b]pyridine-5-carboxylic acid] | 10.4
5 | O=C(O)c1ccc2nc(CN3CCC(Oc4nn(Cc5ccc(Cl)cc5F)cc4Cl)CC3)n(C[C@@H]3CCO3)c2n1 [Compound 183a, 2-{[4-({4-chloro-1-[(4-chloro-2-fluorophenyl)methyl]-1H-pyrazol-3-yl}oxy)piperidin-1-yl]methyl}-3-{[(2S)-oxetan-2-yl]methyl}-3H-imidazo[4,5-b]pyridine-5-carboxylic acid] | 9.1
6 | O=C(O)c1ccc2nc(Cc3ccc(Oc4ccnc(Cc5ccc(Cl)cc5)n4)cc3)n(C[C@@H]3CCO3)c2n1 [Compound 186a, 2-{[4-({2-[(4-chlorophenyl)methyl]pyrimidin-4-yl}oxy)phenyl]methyl}-3-{[(2S)-oxetan-2-yl]methyl}-3H-imidazo[4,5-b]pyridine-5-carboxylic acid] | 9.2
7 | O=C(O)c1ccc2nc(CN3CCC(Oc4cccc(CN5Cc6ccccc6C5=O)n4)CC3)n(C[C@@H]3CCO3)c2n1 [Compound 148a, 3-{[(2S)-oxetan-2-yl]methyl}-2-{[4-({6-[(1-oxo-2,3-dihydro-1H-isoindol-2-yl)methyl]pyridin-2-yl}oxy)piperidin-1-yl]methyl}-3H-imidazo[4,5-b]pyridine-5-carboxylic acid] | 8.4
8 | O=C(O)c1ccc2nc(Cc3ccc(Oc4nc(Cc5ccc(Cl)cc5)ncc4F)cc3F)n(C[C@@H]3CCO3)c2c1 [Compound 191a, 2-{[4-({2-[(4-chlorophenyl)methyl]-5-fluoropyrimidin-4-yl}oxy)-2-fluorophenyl]methyl}-1-{[(2S)-oxetan-2-yl]methyl}-1H-1,3-benzodiazole-6-carboxylic acid] | 9.5
9 | CCOCCn1c(CN2CCC(Oc3ccnc(Cc4ccc(Cl)cc4)n3)CC2)nc2ccc(C(=O)O)nc21 [Compound 194, 2-((4-((2-(4-chlorobenzyl)pyrimidin-4-yl)oxy)piperidin-1-yl)methyl)-3-(2-ethoxyethyl)-3H-imidazo[4,5-b]pyridine-5-carboxylic acid] | 8.5
10 | O=C(O)c1ccc2nc(CN3CCC(Oc4ccnc(Cc5ccc(Cl)cc5)n4)CC3)n(Cc3cn[nH]c3)c2n1 [Compound 193, 3-((1H-pyrazol-4-yl)methyl)-2-((4-((2-(4-chlorobenzyl)pyrimidin-4-yl)oxy)piperidin-1-yl)methyl)-3H-imidazo[4,5-b]pyridine-5-carboxylic acid] | 9.7
11 | O=C(O)c1ccc2nc(CN3CCC(Oc4cc(Cc5ccc(Cl)cc5F)ccc4F)CC3)n(C[C@@H]3CCO3)c2n1 [Compound 114a, 2-[(4-{5-[(4-chloro-2-fluorophenyl)methyl]-2-fluorophenoxy}piperidin-1-yl)methyl]-3-{[(2S)-oxetan-2-yl]methyl}-3H-imidazo[4,5-b]pyridine-5-carboxylic acid] | 8.8
12 | Cn1c(C[C@H]2CC[C@H](Oc3ccnc(Cc4ccc(Cl)cc4)n3)CC2)nc2ccc(C(=O)O)nc21 [Compound 180a, 3-methyl-2-{[trans-4-({2-[(4-chlorophenyl)methyl]pyrimidin-4-yl}oxy)cyclohexyl]methyl}-3H-imidazo[4,5-b]pyridine-5-carboxylic acid] | 8.6
13 | O=C(O)c1ccc2nc(CN3CCC(n4ncc5ccc(Cc6ccc(Cl)cc6F)nc54)CC3)n(C[C@@H]3CCO3)c2n1 [Compound 185a, 2-[(4-{6-[(4-chloro-2-fluorophenyl)methyl]-1H-pyrazolo[3,4-b]pyridin-1-yl}piperidin-1-yl)methyl]-3-{[(2S)-oxetan-2-yl]methyl}-3H-imidazo[4,5-b]pyridine-5-carboxylic acid] | 9.3
14 | Cc1cn(Cc2ccc(Cl)cc2F)nc1OC1CCN(Cc2nc3ccc(C(=O)O)nc3n2C[C@@H]2CCO2)CC1 [Compound 133a, 2-{[4-({1-[(4-chloro-2-fluorophenyl)methyl]-4-methyl-1H-pyrazol-3-yl}oxy)piperidin-1-yl]methyl}-3-{[(2S)-oxetan-2-yl]methyl}-3H-imidazo[4,5-b]pyridine-5-carboxylic acid] | 8.6
15 | O=C(O)c1ccc2nc(CN3CCC(Oc4cccc(Cc5ccc(Cl)cc5)c4Cl)CC3)n(C[C@@H]3CCO3)c2n1 [Compound 158a, 2-[(4-{2-chloro-3-[(4-chlorophenyl)methyl]phenoxy}piperidin-1-yl)methyl]-3-{[(2S)-oxetan-2-yl]methyl}-3H-imidazo[4,5-b]pyridine-5-carboxylic acid] | <6.0

The remaining lines, values ahead:

Row | GLP1R cAMP Stimulation DR: pEC50 | SMILES
16 | 9.2 | COC(C)Cn1c(CN2CCC(Oc3ccnc(Cc4ccc(Cl)cc4)n3)CC2)nc2ccc(C(=O)O)nc21 (stereo not drawn) [Compound 195, 2-((4-((2-(4-chlorobenzyl)pyrimidin-4-yl)oxy)piperidin-1-yl)methyl)-3-(2-methoxypropyl)-3H-imidazo[4,5-b]pyridine-5-carboxylic acid]
17 | 8.4 | O=C(O)c1ccc2nc(CN3CCC(Oc4cc(Cl)cc(Cc5ccc(Cl)cc5)n4)CC3)n(C[C@@H]3CCO3)c2n1 [Compound 155a, 2-{[4-({4-chloro-6-[(4-chlorophenyl)methyl]pyridin-2-yl}oxy)piperidin-1-yl]methyl}-3-{[(2S)-oxetan-2-yl]methyl}-3H-imidazo[4,5-b]pyridine-5-carboxylic acid]
18 | 10.1 | O=C(O)c1ccc2nc(CN3CCC(Oc4nc(Cc5ccc(Cl)cc5F)ncc4F)CC3)n(C[C@@H]3CCO3)c2n1 [Compound 151a, (S)-2-((4-((2-(4-chloro-2-fluorobenzyl)-5-fluoropyrimidin-4-yl)oxy)piperidin-1-yl)methyl)-3-(oxetan-2-ylmethyl)-3H-imidazo[4,5-b]pyridine-5-carboxylic acid]
19 | 8.9 | O=C(O)c1ccc2nc(Cc3ccc(Oc4ccnc(Cc5ccc(Cl)cc5)n4)cc3)n(C[C@@H]3CCO3)c2c1 [Compound 187a, 2-{[4-({2-[(4-chlorophenyl)methyl]pyrimidin-4-yl}oxy)phenyl]methyl}-1-{[(2S)-oxetan-2-yl]methyl}-1H-1,3-benzodiazole-6-carboxylic acid]
20 | 9.7 | O=C(O)c1cnc2nc(CN3CCC(Oc4ccnc(Cc5ccc(Cl)cc5F)n4)CC3)n(C[C@@H]3CCO3)c2c1 [Compound 161a, 2-{[4-({2-[(4-chloro-2-fluorophenyl)methyl]pyrimidin-4-yl}oxy)piperidin-1-yl]methyl}-1-{[(2S)-oxetan-2-yl]methyl}-1H-imidazo[4,5-b]pyridine-6-carboxylic acid]
21 | 7.4 | O=C(O)c1ccc2nc(CN3CCC(Oc4cccc(Cc5ccc(Cl)cc5)c4F)CC3)n(C[C@@H]3CCO3)c2n1 [Compound 157a, 2-[(4-{3-[(4-chlorophenyl)methyl]-2-fluorophenoxy}piperidin-1-yl)methyl]-3-{[(2S)-oxetan-2-yl]methyl}-3H-imidazo[4,5-b]pyridine-5-carboxylic acid]
22 | 6.9 | O=C(O)c1ccc2nc(CN3CC=C(c4cnc5ccc(Cc6ccc(Cl)cc6F)nn45)CC3)n(C[C@@H]3CCO3)c2n1 [Compound 192a, 2-[(4-{6-[(4-chloro-2-fluorophenyl)methyl]imidazo[1,2-b]pyridazin-3-yl}-1,2,3,6-tetrahydropyridin-1-yl)methyl]-3-{[(2S)-oxetan-2-yl]methyl}-3H-imidazo[4,5-b]pyridine-5-carboxylic acid]
23 | 7.3 | O=C(O)c1ccc2nc(CN3CCC(Oc4cccc(Cc5ccc(Cl)cc5F)n4)C3)n(C[C@@H]3CCO3)c2n1 (stereo partly drawn) [Compound 130a, 2-{[3-({6-[(4-chloro-2-fluorophenyl)methyl]pyridin-2-yl}oxy)pyrrolidin-1-yl]methyl}-3-{[(2S)-oxetan-2-yl]methyl}-3H-imidazo[4,5-b]pyridine-5-carboxylic acid]
24 | 8.6 | O=C(O)c1ccc2nc(CN3CCC(Oc4ccnc(Cc5ccc(Cl)cc5)c4)CC3)n(C[C@@H]3CCO3)c2n1 [Compound 159a, 2-{[4-({2-[(4-chlorophenyl)methyl]pyridin-4-yl}oxy)piperidin-1-yl]methyl}-3-{[(2S)-oxetan-2-yl]methyl}-3H-imidazo[4,5-b]pyridine-5-carboxylic acid]
